Earlier results as cited in patent US20050159419A1, “Compositions of a cyclooxygenase-2 selective inhibitor and a central nervous system stimulant for the treatment of central nervous system damage” (Pharmacia Corporation, priority 2003, published 2005).

Key:
[1] = tested on: human stroke victims; details: coupled with physical therapy, compared to stroke victims receiving only physical therapy
[2] = tested on: infarcted rats

SMILES: CC(N)Cc1ccccc1 (centres unmarked) [amphetamine]
- motor recovery [1]: accelerated motor recovery
- alternative circuit activation [2]: promoted alternative circuit activation
